This passage reports GI50, DC50 and IC50 results from US20250092039A1, “GLUTARIMIDE-CONTAINING PAN-KRAS-MUTANT DEGRADER COMPOUNDS AND USES THEREOF” (Tiger Biotherapeutics Inc., priority 2022, published 2025).

Read-outs that look alike come from different tables or passages of the source.

Test [1] has as its system SW620 cells. Kind of test: 3D cell growth inhibition of SW620 cells carrying endogenous KRAS G12V mutation (CellTiter-Glo 3D, GI50). In kind it is cell-based. The settings on record: Homo sapiens, SW-620, 144 h, read-out: SW620 3D cell growth GI50. The gist of the method: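 SW620 cells (endogenous KRAS G12V) grown in 3D were dosed next day with compound from DMSO stocks at various concentrations, then incubated 6 days at 37° C.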

The target in test [2] is KRAS G12V (Homo sapiens (Human), UniProt P01116, G12V). Kind of test: KRAS G12V degradation in SW620 cells (Western blot, DC50). In kind it is cell-based. As to conditions: 24 hours. The gist of the method:
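SW620 cells (homozygous KRAS G12V) were treated with compound for 24 hours at 37° C. KRAS in lysates was measured by Western blot with fluorescent secondary antibodies and expressed relative to DMSO vehicle (100%). DC50 came from a four-parameter variable-slope dose-response fit.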
(A western blot detects proteins with antibodies after separation by electrophoresis.)

The target of test [3] is KRAS-G12V/RAF1 (Homo sapiens (Human), UniProt P01116, G12V). In words: KRAS/RAF1 binding inhibition assay (AlphaScreen). In a few lines:
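Binding of GppNHp-loaded KRAS G12V to the RAF1 RBD was measured by AlphaScreen with test compound present in 2% DMSO (final), 60 min incubation at 4° C. Signals were converted to % inhibition versus DMSO, and IC50 was obtained by variable-slope nonlinear regression.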

Chain of KRAS-G12V/RAF1 (P01116-2 other isoform, or with tags, fused parts or gaps G12V): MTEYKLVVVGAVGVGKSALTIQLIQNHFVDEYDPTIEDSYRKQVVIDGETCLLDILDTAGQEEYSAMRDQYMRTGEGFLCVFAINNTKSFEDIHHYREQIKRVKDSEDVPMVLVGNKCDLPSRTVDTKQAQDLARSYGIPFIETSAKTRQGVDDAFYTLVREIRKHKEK
Chain of KRAS G12V (P01116-2 other isoform, or with tags, fused parts or gaps G12V): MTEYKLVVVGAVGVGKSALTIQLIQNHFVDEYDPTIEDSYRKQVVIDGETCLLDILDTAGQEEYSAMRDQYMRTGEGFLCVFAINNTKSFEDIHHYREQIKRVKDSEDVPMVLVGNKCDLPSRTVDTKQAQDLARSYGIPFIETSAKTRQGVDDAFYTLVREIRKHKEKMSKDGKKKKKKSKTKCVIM

The term GI50 denotes the concentration giving 50% growth inhibition. For orientation: DC50 means the midpoint of the concentration-degradation curve. The low end stands for a more potent degrader, the high end for a less potent degrader. As usually defined, the IC50 is the midpoint of a concentration-inhibition curve. Low values mean inhibition by little substance, high ones a need for much substance. In the case of `CCc1cccc2cc(O)cc(-c3ncc4c(N5CCC[C@@](C)(O)C5)nc(OCC5(CN6CC(N7CC(N8CCN(c9ccc%10c(c9)CN([C@H]9CCC(=O)NC9=O)C%10=O)CC8)C7)C6)CC5)nc4c3F)c12` [Compound 168, (S)-3-(5-(4-(1′-((1-(((7-(8-ethyl-3-hydroxynaphthalen-1-yl)-8-fluoro-4-((R)-3-hydroxy-3-methylpiperidin-1-yl)pyrido[4,3-d]pyrimidin-2-yl)oxy)methyl)cyclopropyl)methyl)-[1,3′-biazetidin]-3-yl)piperazin-1-yl)-1-oxoisoindolin-2-yl)piperidine-2,6-dione], the GI50 in test [1] (SW620 cells, 6 days) was > 100 nM. For the same compound, the DC50 in test [2] lay within 1 to 10 nM. In test [3], this compound had an IC50 of 20 to 200 nM.

In the case of `CCc1c(F)ccc2cc(O)cc(-c3ncc4c(N5CCC[C@@](C)(O)C5)nc(OCC5(CN6CCN(C7CC8(C7)CN(c7ccc9c(c7)CN(C7CCC(=O)NC7=O)C9=O)C8)CC6)CC5)nc4c3F)c12` (stereo partly drawn) [Compound 161, 3-(5-(6-(4-((1-(((7-(8-ethyl-7-fluoro-3-hydroxynaphthalen-1-yl)-8-fluoro-4-((R)-3-hydroxy-3-methylpiperidin-1-yl)pyrido[4,3-d]pyrimidin-2-yl)oxy)methyl)cyclopropyl)methyl)piperazin-1-yl)-2-azaspiro[3.3]heptan-2-yl)-1-oxoisoindolin-2-yl)piperidine-2,6-dione], the GI50 in test [1] (SW620 cells, 6 days) was < 10 nM. For the same compound, the DC50 in test [2] was < 1 nM. For the same compound, the IC50 in test [3] lay within 20 to 200 nM.

Regarding `CCc1c(F)ccc2cc(O)cc(-c3ncc4c(N5CCC[C@@](C)(O)C5)nc(OCC5(CN6CCC(C#N)(CN7CCN(c8ccc9c(c8)CN([C@H]8CCC(=O)NC8=O)C9=O)CC7)CC6)CC5)nc4c3F)c12` [Compound 20, 4-((4-(2-((S)-2,6-dioxopiperidin-3-yl)-1-oxoisoindolin-5-yl)piperazin-1-yl)methyl)-1-((1-(((7-(8-ethyl-7-fluoro-3-hydroxynaphthalen-1-yl)-8-fluoro-4-((R)-3-hydroxy-3-methylpiperidin-1-yl)pyrido[4,3-d]pyrimidin-2-yl)oxy)methyl)cyclopropyl)methyl)piperidine-4-carbonitrile], the GI50 in test [1] (SW620 cells, 6 days) is < 10 nM. In addition, in test [2], the DC50 was > 100 nM. Moreover, the IC50 in test [3] is > 200 nM.

Turning to `CCc1c(F)ccc2cc(O)cc(-c3ncc4c(N5CCC[C@@](C)(O)C5)nc(OCC5(CN6CCC(F)(CN7CCC(N8CCN(c9ccc%10c(c9)CN([C@H]9CCC(=O)NC9=O)C%10=O)CC8)CC7)CC6)CC5)nc4c3F)c12` [Compound 72, (S)-3-(5-(4-(1-((1-((1-(((7-(8-ethyl-7-fluoro-3-hydroxynaphthalen-1-yl)-8-fluoro-4-((R)-3-hydroxy-3-methylpiperidin-1-yl)pyrido[4,3-d]pyrimidin-2-yl)oxy)methyl)cyclopropyl)methyl)-4-fluoropiperidin-4-yl)methyl)piperidin-4-yl)piperazin-1-yl)-1-oxoisoindolin-2-yl)piperidine-2,6-dione], the GI50 in test [1] (SW620 cells, 6 days) is < 10 nM. Moreover, the DC50 in test [2] is < 1 nM. Moreover, the IC50 in test [3] is < 20 nM.

Consider `CCc1c(F)ccc2cc(O)cc(-c3ncc4c(N5CCC[C@@](C)(O)C5)nc(OCC5(CN6CCN(CC7CN(c8ccc9c(c8)CN(C8CCC(=O)NC8=O)C9=O)C7)CC6)CC5)nc4c3F)c12` (stereo partly drawn) [Compound 133, 3-[5-[3-[[4-[[1-[[7-(8-ethyl-7-fluoro-3-hydroxy-1-naphthyl)-8-fluoro-4-[(3R)-3-hydroxy-3-methyl-1-piperidyl]pyrido[4,3-d]pyrimidin-2-yl]oxymethyl]cyclopropyl]methyl]piperazin-1-yl]methyl]azetidin-1-yl]-1-oxo-isoindolin-2-yl]piperidine-2,6-dione], for which the GI50 in test [1] is < 10 nM. In addition, in test [2], the DC50 is < 1 nM. In test [3], the IC50 lay in the range of 20 to 200 nM.

As to `CCc1c(F)ccc2cc(O)cc(-c3ncc4c(N5CCC[C@@](C)(O)C5)nc(OCC5(CN6CCC7(CC6)CC(CN6CCN(c8ccc9c(c8)CN([C@H]8CCC(=O)NC8=O)C9=O)CC6)C7)CC5)nc4c3F)c12` [Compound 2, (S)-3-(5-(4-((7-((1-(((7-(8-ethyl-7-fluoro-3-hydroxynaphthalen-1-yl)-8-fluoro-4-((R)-3-hydroxy-3-methylpiperidin-1-yl)pyrido[4,3-d]pyrimidin-2-yl)oxy)methyl)cyclopropyl)methyl)-7-azaspiro[3.5]nonan-2-yl)methyl)piperazin-1-yl)-1-oxoisoindolin-2-yl)piperidine-2,6-dione], the GI50 in test [1] (SW620 cells, 6 days) is 10 to 100 nM. Besides, in test [2], the DC50 is < 1 nM. The compound further gave an IC50 in test [3] of 20 to 200 nM.

`CCc1c(F)ccc2cc(O)cc(-c3ncc4c(N5CCC[C@]6(CCO6)C5)nc(OCC5(CN6CCC7(CC6)CC(N6CCN(c8ccc9c(c8)CN([C@H]8CCC(=O)NC8=O)C9=O)CC6)C7)CC5)nc4c3F)c12` [Compound 218, (S)-3-(5-(4-(7-((1-(((7-(8-ethyl-7-fluoro-3-hydroxynaphthalen-1-yl)-8-fluoro-4-((S)-1-oxa-6-azaspiro[3.5]nonan-6-yl)pyrido[4,3-d]pyrimidin-2-yl)oxy)methyl)cyclopropyl)methyl)-7-azaspiro[3.5]nonan-2-yl)piperazin-1-yl)-1-oxoisoindolin-2-yl)piperidine-2,6-dione]: the GI50 in test [1] (SW620 cells, 6 days) is < 10 nM. In addition, the DC50 in test [2] is < 1 nM. In test [3], this compound had an IC50 of 20 to 200 nM.

Turning to `CCc1cccc2cc(O)cc(-c3ncc4c(N5CCC[C@@](C)(O)C5)nc(OCC5(CN6CCC(CN7CCN(c8ccc9c(c8)CN([C@H]8CCC(=O)NC8=O)C9=O)CC7)CC6)CC5)nc4c3F)c12` [Compound 6, (S)-3-(5-(4-((1-((1-(((7-(8-ethyl-3-hydroxynaphthalen-1-yl)-8-fluoro-4-((R)-3-hydroxy-3-methylpiperidin-1-yl)pyrido[4,3-d]pyrimidin-2-yl)oxy)methyl)cyclopropyl)methyl)piperidin-4-yl)methyl)piperazin-1-yl)-1-oxoisoindolin-2-yl)piperidine-2,6-dione], the GI50 in test [1] (SW620 cells, 6 days) was < 10 nM. Also, the DC50 in test [2] was < 1 nM. Also, the IC50 in test [3] fell in the range of 20 to 200 nM.

As for `CCc1cccc2cc(O)cc(-c3ncc4c(N5CCC[C@@](C)(O)C5)nc(OCC5(CN6CCC7(CC6)CC(CN6CCN(c8ccc9c(c8)CN([C@H]8CCC(=O)NC8=O)C9=O)CC6)C7)CC5)nc4c3F)c12` [Compound 87, (S)-3-(5-(4-((7-((1-(((7-(8-ethyl-3-hydroxynaphthalen-1-yl)-8-fluoro-4-((R)-3-hydroxy-3-methylpiperidin-1-yl)pyrido[4,3-d]pyrimidin-2-yl)oxy)methyl)cyclopropyl)methyl)-7-azaspiro[3.5]nonan-2-yl)methyl)piperazin-1-yl)-1-oxoisoindolin-2-yl)piperidine-2,6-dione], the GI50 in test [1] is < 10 nM. The DC50 in test [2] is 1 to 10 nM. In test [3], this compound gave an IC50 of 20 to 200 nM.

Regarding `CCc1c(F)ccc2cc(O)cc(-c3ncc4c(N5CCC[C@@](C)(O)C5)nc(OCC5(CN6CCC(CN7CCN(c8ccc(C9CCC(=O)NC9=O)cc8)CC7)CC6)CC5)nc4c3F)c12` (stereo partly drawn) [Compound 14, 3-(4-(4-((1-((1-(((7-(8-ethyl-7-fluoro-3-hydroxynaphthalen-1-yl)-8-fluoro-4-((R)-3-hydroxy-3-methylpiperidin-1-yl)pyrido[4,3-d]pyrimidin-2-yl)oxy)methyl)cyclopropyl)methyl)piperidin-4-yl)methyl)piperazin-1-yl)phenyl)piperidine-2,6-dione], in test [1] (SW620 cells, 6 days), the 50% growth inhibitory concentration (GI50) is 10 to 100 nM. For the same compound, the DC50 in test [2] was > 100 nM. Further, in test [3], the IC50 was < 20 nM.

`CCc1cccc2cc(O)cc(-c3ncc4c(N5CCNC(=O)CC5)nc(OCC5(CN6CCC7(CC6)CC(CN6CCN(c8ccc9c(c8)CN([C@H]8CCC(=O)NC8=O)C9=O)CC6)C7)CC5)nc4c3F)c12` [Compound 128, (S)-3-(5-(4-((7-((1-(((7-(8-ethyl-3-hydroxynaphthalen-1-yl)-8-fluoro-4-(5-oxo-1,4-diazepan-1-yl)pyrido[4,3-d]pyrimidin-2-yl)oxy)methyl)cyclopropyl)methyl)-7-azaspiro[3.5]nonan-2-yl)methyl)piperazin-1-yl)-1-oxoisoindolin-2-yl)piperidine-2,6-dione]: the GI50 in test [1] (SW620 cells, 6 days) was > 100 nM. Besides, the DC50 in test [2] was > 100 nM. For the same compound, in test [3], the IC50 is > 200 nM.

Consider `CCc1c(F)ccc2cc(O)cc(-c3ncc4c(N5C[C@@H]6C[C@H](C5)[C@H](O)C6)nc(OCC5(CN6CCC7(CC6)CC(CN6CCN(c8ccc9c(c8)CN([C@H]8CCC(=O)NC8=O)C9=O)CC6)C7)CC5)nc4c3F)c12` [Compound 90, (S)-3-(5-(4-((7-((1-(((7-(8-ethyl-7-fluoro-3-hydroxynaphthalen-1-yl)-8-fluoro-4-((IR,5R,6R)-6-hydroxy-3-azabicyclo[3.2.1]octan-3-yl)pyrido[4,3-d]pyrimidin-2-yl)oxy)methyl)cyclopropyl)methyl)-7-azaspiro[3.5]nonan-2-yl)methyl)piperazin-1-yl)-1-oxoisoindolin-2-yl)piperidine-2,6-dione], for which the GI50 in test [1] (SW620 cells, 6 days) is < 10 nM. In test [2], this compound displayed a DC50 of 1 to 10 nM. Moreover, the IC50 in test [3] was > 200 nM.

`CCc1c(F)ccc2cc(O)cc(-c3ncc4c(N5CCC[C@@](C)(O)C5)nc(OCC5(CN6CC(N7CC8(CCN(c9ccc%10c(c9)CN(C9CCC(=O)NC9=O)C%10=O)CC8)C7)C6)CC5)nc4c3F)c12` (stereo partly drawn) [Compound 144, 3-(5-(2-(1-((1-(((7-(8-ethyl-7-fluoro-3-hydroxynaphthalen-1-yl)-8-fluoro-4-((R)-3-hydroxy-3-methylpiperidin-1-yl)pyrido[4,3-d]pyrimidin-2-yl)oxy)methyl)cyclopropyl)methyl)azetidin-3-yl)-2,7-diazaspiro[3.5]nonan-7-yl)-1-oxoisoindolin-2-yl)piperidine-2,6-dione]: the GI50 in test [1] (SW620 cells, 6 days) is < 10 nM. The DC50 in test [2] was < 1 nM. Also, in test [3], the IC50 is < 20 nM.
